Assay results as given in patent US9012470B2 (Dart NeuroScience (Cayman) Ltd., priority 2010, dated 2015).
Counter-ions that a name gives are not always drawn.

System: benzodiazepine site of GABAA
Assay: Binding assay, benzodiazepine site of GABAA (binding assay 1: rat brain, (3H)-flunitrazepam; binding assay 2: bovine hippocampal membranes, [3H]-RY80)
Settings: radioligand binding; for % Inhibition at 10 μM: 10 μM test compound; for % Inhibition at 0.1 μM: 0.1 μM test compound
Protocol: The ability of a compound disclosed herein to act as ligand to the benzodiazepine site of GABAA can be determined using pharmacological models which are well known in the art using the following assay.
Binding assay 1: Whole brain (except cerebellum) of male Wistar derived rats weighing 175±25 g were used to prepare GABAA central benzodiazepine receptor in Na—K phosphate buffer pH 7.4. A 5 mg aliquot was incubated with 1 nM (^3H)-flunitrazepam for 60 minutes at 25° C. Experiments were performed in the presence or absence of 30 μM of GABA. Non-specific binding was estimated in the presence of 10 μM of diazepam. Membranes were filtered and washed, the filters were then counted to determine (^3H)-flunitrazepam specifically bound. Test compounds were tested in duplicate according to the required concentrations (Damm, H. W., et al. (1978) Res. Comm. Chem. Pathol. Pharmacol. 22: 597-560 incorporated herein in its entirety; Speth, R. C., et al. (1979) Life Sci. 24: 351-357 incorporated herein in its entirety).
Receptor Source: Bovine hippocampal membranes
Radioligand: [3H]-RY80 (40-80 Ci/mmol)
Final ligand concentration—[0.8 nM]
Non-specific Determinant: L-655,708—[0.5 μM]
Binding assay 2 followed procedures based on Li and Szabo (Li M., Szabo A., Rosenberg H. Evaluation of native GABAA receptors containing an α5 subunit. Eur. J. Pharmacol. 413: 63-72 (2001)). Incubation Conditions: Reactions are carried out in 50 mM Tris-Citrate (pH 7.8) containing 200 mM NaCl at 0-4° C. for 60 minutes. The reaction is terminated by rapid vacuum filtration onto glass fiber filters. Radioactivity trapped onto the filters is determined and compared to control values in order to ascertain any interactions of test compound with the benzodiazepine (central) binding site.

SMILES | % Inhibition at 10 μM | % Inhibition at 0.1 μM
CCNC(=O)n1ncc2c3nn(-c4ccc(Cl)c(C(F)(F)F)c4)c(=O)c-3c[nH]c21 [Compound 6s, 2-(4-chloro-3-(trifluoromethyl)phenyl)-N-ethyl-3-oxo-2,3-dihydrodipyrazolo[3,4-b:3′,4′-d]pyridine-6(5H)-carboxamide] | B (B indicates % inhibition <80% and >20%) | –
CC(C)NC(=O)n1ncc2c3nn(-c4ccc(Cl)c(C(F)(F)F)c4)c(=O)c-3c[nH]c21 [Compound 6t, 2-(4-chloro-3-(trifluoromethyl)phenyl)-N-isopropyl-3-oxo-2,3-dihydrodipyrazolo[3,4-b:3′,4′-d]pyridine-6(5H)-carboxamide] | C (C indicates % inhibition <20%) | –
CC(C)NC(=O)n1ncc2c3nn(-c4ccsc4)c(=O)c-3c[nH]c21 [Compound 6v, N-isopropyl-3-oxo-2-(thiophen-3-yl)-2,3-dihydrodipyrazolo[3,4-b:3′,4′-d]pyridine-6(5H)-carboxamide] | B (B indicates % inhibition <80% and >20%) | –
CC(C)NC(=O)n1ncc2c3nn(-c4ccc(Br)cc4)c(=O)c-3c[nH]c21 [Compound 6x, 2-(4-bromophenyl)-N-isopropyl-3-oxo-2,3-dihydrodipyrazolo[3,4-b:3′,4′-d]pyridine-6(5H)-carboxamide] | A (A indicates % inhibition >80%) | –
CN(C)C(=O)n1ncc2c3nn(-c4ccccc4)c(=O)c-3c[nH]c21 [Compound 7c, N,N-dimethyl-3-oxo-2-phenyl-2,3-dihydrodipyrazolo[3,4-b:3′,4′-d]pyridine-6(5H)-carboxamide. TFA] | B (B indicates % inhibition <80% and >20%) | –
CC(C)NC(=O)n1cc2[nH]cc3c(=O)n(-c4ccccc4)nc-3c2c1 [Compound 13j, N-Isopropyl-3-oxo-2-phenyl-2,3-dihydropyrazolo[3,4-d]pyrrolo[3,4-b]pyridine-7(5H)-carboxamide] | A (A indicates % inhibition >80%) | B (B indicates % inhibition <80% and >20%)
O=C(Nc1ccccc1)n1cc2[nH]cc3c(=O)n(-c4ccccc4)nc-3c2c1 [Compound 13k, 3-Oxo-N,2-diphenyl-2,3-dihydropyrazolo[3,4-d]pyrrolo[3,4-b]pyridine-7(5H)-carboxamide] | A (A indicates % inhibition >80%) | B (B indicates % inhibition <80% and >20%)
CCNC(=O)n1ccc2c3nn(-c4ccccc4)c(=O)c-3c[nH]c21 [Compound 17b, N-Ethyl-3-oxo-2-phenyl-2,3-dihydropyrazolo[3,4-d]pyrrolo[2,3-b]pyridine-6(5H)-carboxamide] | B (B indicates % inhibition <80% and >20%) | C (C indicates % inhibition <20%)
CCNC(=S)n1ccc2c3nn(-c4ccccc4)c(=O)c-3c[nH]c21 [Compound 17e, N-ethyl-3-oxo-2-phenyl-2,3-dihydropyrazolo[3,4-d]pyrrolo[2,3-b]pyridine-6(5H)-carbothioamide] | B (B indicates % inhibition <80% and >20%) | –
CCNC(=O)n1ccc2c3nn(-c4ccc(Cl)cn4)c(=O)c-3c[nH]c21 [Compound 17f, 2-(5-Chloropyridin-2-yl)-N-ethyl-3-oxo-2,3-dihydropyrazolo[3,4-d]pyrrolo[2,3-b]pyridine-6(5H)-carboxamide] | B (B indicates % inhibition <80% and >20%) | –

Second part, the compound after the results:

% Inhibition at 10 μM | % Inhibition at 0.1 μM | SMILES
A (A indicates % inhibition >80%) | A (A indicates % inhibition >80%) | CCNC(=O)n1cc2[nH]cc3c(=O)n(-c4ccc(Cl)cn4)nc-3c2c1 [Compound 13h, 2-(5-chloropyridin-2-yl)-N-ethyl-3-oxo-2,3-dihydropyrazolo[3,4-d]pyrrolo[3,4-b]pyridine-7(5H)-carboxamide]
C (C indicates % inhibition <20%) | C (C indicates % inhibition <20%) | CNC(=O)n1ccc2c3nn(-c4ccccc4)c(=O)c-3c[nH]c21 [Compound 17a, N-Methyl-3-oxo-2-phenyl-2,3-dihydropyrazolo[3,4-d]pyrrolo[2,3-b]pyridine-6(5H)-carboxamide]
C (C indicates % inhibition <20%) | C (C indicates % inhibition <20%) | CC(C)NC(=O)n1ccc2c3nn(-c4ccccc4)c(=O)c-3c[nH]c21 [Compound 17c, N-Isopropyl-3-oxo-2-phenyl-2,3-dihydropyrazolo[3,4-d]pyrrolo[2,3-b]pyridine-6(5H)-carboxamide]
C (C indicates % inhibition <20%) | C (C indicates % inhibition <20%) | O=C(Nc1ccccc1)n1ccc2c3nn(-c4ccccc4)c(=O)c-3c[nH]c21 [Compound 17d, 3-Oxo-N,2-diphenyl-2,3-dihydropyrazolo[3,4-d]pyrrolo[2,3-b]pyridine-6(5H)-carboxamide]
